Experimental data reported in PubChem BioAssay AID1963825 (Molecular Pharmacology Branch, DTP, NCI, 2024).
pIC50: −log10 of the molar value.

Experiment: Anticancer human tumor 997537-175-T-J1-PDC patient-derived colon adenocarcinoma cell line growth inhibition [POLQ]
Details: 997537-175-T-J1-PDC complex spheroid viability, combination with POLQ inhibitors; for pIC50: curve of first compound; for viability, T/C: stronger effect = lower value
Outline: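 Complex spheroid viability model combining PDC tumour cells with endothelial (HUVEC) and MSC stromal cells. Novobiocin, ART-558 or RP6685 were tested singly and in combination with standard and investigational anticancer drugs. Each was titrated in half-log steps from near clinical Cmax, or from 10 microM where Cmax was unknown.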

[1] = second compound 0.0316 µM, first compound 0.0316 µM
[2] = second compound 0.0316 µM, first compound 0.1 µM
[3] = second compound 0.0316 µM, first compound 0.316 µM
[4] = second compound 0.0316 µM, first compound 1 µM
[5] = second compound 0.0316 µM, first compound 3.16 µM
[6] = second compound 0.0316 µM, first compound 10 µM
[7] = second compound 0.1 µM, first compound 0.0316 µM
[8] = second compound 0.1 µM, first compound 0.1 µM
[9] = second compound 0.1 µM, first compound 0.316 µM
[10] = second compound 0.1 µM, first compound 1 µM
[11] = second compound 0.1 µM, first compound 3.16 µM
[12] = second compound 0.1 µM, first compound 10 µM
[13] = second compound 0.316 µM, first compound 0.0316 µM
[14] = second compound 0.316 µM, first compound 0.1 µM
[15] = second compound 0.316 µM, first compound 0.316 µM
[16] = second compound 0.316 µM, first compound 1 µM
[17] = second compound 0.316 µM, first compound 3.16 µM
[18] = second compound 0.316 µM, first compound 10 µM
[19] = second compound 1 µM, first compound 0.0316 µM
[20] = second compound 1 µM, first compound 0.1 µM
[21] = second compound 1 µM, first compound 0.316 µM
[22] = second compound 1 µM, first compound 1 µM
[23] = second compound 1 µM, first compound 3.16 µM
[24] = second compound 1 µM, first compound 10 µM
[25] = second compound 3.16 µM, first compound 0.0316 µM
[26] = second compound 3.16 µM, first compound 0.1 µM
[27] = second compound 3.16 µM, first compound 0.316 µM
[28] = second compound 3.16 µM, first compound 1 µM
[29] = second compound 3.16 µM, first compound 3.16 µM
[30] = second compound 3.16 µM, first compound 10 µM
[31] = second compound 10 µM, first compound 0.0316 µM
[32] = second compound 10 µM, first compound 0.1 µM
[33] = second compound 10 µM, first compound 0.316 µM
[34] = second compound 10 µM, first compound 1 µM
[35] = second compound 10 µM, first compound 3.16 µM
[36] = second compound 10 µM, first compound 10 µM
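Further: luminescence signal used as a surrogate for viable cells; spheroids exposed to drugs for seven days before readout.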

## CC1COCCN1c1cc(C2(O)CC3CCC(C2)O3)c2cnn(-c3ccn[nH]3)c2n1 (centres undefined) + Cc1cccc(N(C)C(=O)C2C(O)CCN2c2nc(C)cc(C(F)(F)F)c2C#N)c1
Second compound 0.0316 µM
  pIC50: < 5.00
Second compound 0.1 µM
  pIC50: 5.50
Second compound 0.316 µM
  pIC50: 6.03
Second compound 1 µM
  pIC50: < 5.00
Second compound 3.16 µM
  pIC50: < 5.00
Second compound 10 µM
  pIC50: 5.40
[1]
  viability, T/C: 79.8%
[2]
  viability, T/C: 96%
[3]
  viability, T/C: 60%
[4]
  viability, T/C: 52.8%
[5]
  viability, T/C: 58.3%
[6]
  viability, T/C: 39%
[7]
  viability, T/C: 94.8%
[8]
  viability, T/C: 94.2%
[9]
  viability, T/C: 48.6%
[10]
  viability, T/C: 42.4%
[11]
  viability, T/C: 66.4%
[12]
  viability, T/C: 53.9%
[13]
  viability, T/C: 76.5%
[14]
  viability, T/C: 66.8%
[15]
  viability, T/C: 54.8%
[16]
  viability, T/C: 45.9%
[17]
  viability, T/C: 53.8%
[18]
  viability, T/C: 47.6%
[19]
  viability, T/C: 86.8%
[20]
  viability, T/C: 81.9%
[21]
  viability, T/C: 43.2%
[22]
  viability, T/C: 57.3%
[23]
  viability, T/C: 81.9%
[24]
  viability, T/C: 64.7%
[25]
  viability, T/C: 84.3%
[26]
  viability, T/C: 59.9%
[27]
  viability, T/C: 62.8%
[28]
  viability, T/C: 54.1%
[29]
  viability, T/C: 54.5%
[30]
  viability, T/C: 75.8%
[31]
  viability, T/C: 92.3%
[32]
  viability, T/C: 69%
[33]
  viability, T/C: 61.4%
[34]
  viability, T/C: 47.4%
[35]
  viability, T/C: 58.1%
[36]
  viability, T/C: 44.8%

## CCc1cc2c(N3CCc4c(cc(Cn5ccnc5)cc4-c4cn(C)nc4C(F)(F)F)C3=O)cc(C)nc2c(OC)n1 + Nc1ccc(C#CCN(C(=O)Cc2ncc(C(F)(F)F)cc2C(F)(F)F)c2ccc(F)cc2)nn1
Second compound 0.0316 µM
  pIC50: < 5.00
Second compound 0.1 µM
  pIC50: < 5.00
Second compound 0.316 µM
  pIC50: < 5.00
Second compound 1 µM
  pIC50: < 5.00
Second compound 3.16 µM
  pIC50: < 5.00
Second compound 10 µM
  pIC50: < 5.00
[1]
  viability, T/C: 96%
[2]
  viability, T/C: 98.5%
[3]
  viability, T/C: 98.1%
[4]
  viability, T/C: 86.8%
[5]
  viability, T/C: 76%
[6]
  viability, T/C: 67.4%
[7]
  viability, T/C: 88.7%
[8]
  viability, T/C: 97%
[9]
  viability, T/C: 77.7%
[10]
  viability, T/C: 79.6%
[11]
  viability, T/C: 68.3%
[12]
  viability, T/C: 74.9%
[13]
  viability, T/C: 93.4%
[14]
  viability, T/C: 87.3%
[15]
  viability, T/C: 99.5%
[16]
  viability, T/C: 96.5%
[17]
  viability, T/C: 84%
[18]
  viability, T/C: 77.5%
[19]
  viability, T/C: 96.4%
[20]
  viability, T/C: 103%
[21]
  viability, T/C: 84%
[22]
  viability, T/C: 80.9%
[23]
  viability, T/C: 78.9%
[24]
  viability, T/C: 51%
[25]
  viability, T/C: 102%
[26]
  viability, T/C: 103%
[27]
  viability, T/C: 99.7%
[28]
  viability, T/C: 89.7%
[29]
  viability, T/C: 65.4%
[30]
  viability, T/C: 73.7%
[31]
  viability, T/C: 105%
[32]
  viability, T/C: 104%
[33]
  viability, T/C: 87.6%
[34]
  viability, T/C: 96.8%
[35]
  viability, T/C: 71.8%
[36]
  viability, T/C: 76.7%
